Measurements reported in PubChem BioAssay (NCI).
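The compound was tested at five concentrations on cells cultured in 96-well plates, with a 48-hour exposure period. Abbreviation: GI50, concentration required for 50% inhibition of growth. TGI denotes the concentration required for complete inhibition of growth.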

Tests used:
Experiment in all cases: NCI anticancer screen, dose series, 48 h
ACHN renal = test system: ACHN renal
HS 578T breast = test system: HS 578T breast
SN12C renal = test system: SN12C renal
OVCAR-4 ovarian = test system: OVCAR-4 ovarian
NCI-H460 lung = test system: NCI-H460 lung
M14 melanoma = test system: M14 melanoma
U251 CNS = test system: U251 CNS
MALME-3M melanoma = test system: MALME-3M melanoma
NCI-H23 lung = test system: NCI-H23 lung
HOP-92 NSCLC = test system: HOP-92 NSCLC

Compound	GI50 (ACHN renal)	TGI (ACHN renal)	GI50 (HS 578T breast)	TGI (HS 578T breast)	GI50 (SN12C renal)	TGI (SN12C renal)	GI50 (OVCAR-4 ovarian)	TGI (OVCAR-4 ovarian)	GI50 (NCI-H460 lung)	TGI (NCI-H460 lung)	GI50 (M14 melanoma)	TGI (M14 melanoma)	GI50 (U251 CNS)	TGI (U251 CNS)	TGI (MALME-3M melanoma)	TGI (NCI-H23 lung)	TGI (HOP-92 NSCLC)	GI50 (MALME-3M melanoma)	GI50 (NCI-H23 lung)
COc1ccc(C(=O)c2sc3nc(-c4cccs4)ccc3c2N)cc1OC	9.26 µM	> 100 µM	6.27 µM	> 100 µM	11 µM	> 100 µM	6.75 µM	> 100 µM	3.88 µM	> 100 µM	4.27 µM	> 100 µM	7.78 µM	> 100 µM	–	–	–	–	–
CC(=O)c1ccc(NC(=O)C(=O)C(C#N)CC(C)(C)C=O)cc1 (configuration not stated)	–	> 100 µM	–	–	–	> 100 µM	–	> 100 µM	–	> 100 µM	–	> 100 µM	–	> 100 µM	> 100 µM	> 100 µM	> 100 µM	–	–
O=c1c2cc3c(cc2c2cccc4c2n1CCC4)OCO3	–	> 100 µM	–	–	–	> 100 µM	–	> 100 µM	–	> 100 µM	–	> 100 µM	–	73.5 µM	> 100 µM	> 100 µM	> 100 µM	–	–
C=C(C(=C)P(=S)(C(C)C)C(C)C)P(=S)(C(C)C)C(C)C	–	> 100 µM	–	–	–	> 100 µM	–	> 100 µM	–	> 100 µM	–	> 100 µM	–	> 100 µM	> 100 µM	> 100 µM	> 100 µM	–	–
O=c1[nH]cnc2c(COCCO)c[nH]c12	–	> 100 µM	–	–	–	> 100 µM	–	> 100 µM	–	> 100 µM	–	> 100 µM	–	> 100 µM	> 100 µM	> 100 µM	> 100 µM	–	–
O=C(/C=C(\C(=O)c1cccs1)c1cccs1)c1ccc(C(=O)/C=C(\C(=O)c2cccs2)c2cccs2)cc1	–	> 100 µM	–	> 100 µM	–	> 100 µM	–	> 100 µM	–	> 100 µM	–	> 100 µM	–	> 100 µM	–	–	–	–	–
N#CC(C#N)=C/C=C(\Sc1ccc(F)cc1Cl)c1ccc(Cl)cc1	0.883 µM	2.14 µM	1.53 µM	28.2 µM	0.365 µM	1.34 µM	4.97 µM	> 64.2 µM	0.763 µM	4.82 µM	0.433 µM	2.03 µM	0.414 µM	1.69 µM	1.72 µM	2.49 µM	–	0.406 µM	0.449 µM
O=c1cccc(-c2cccc(=O)[nH]2)[nH]1	–	> 100 µM	–	–	–	> 100 µM	–	–	–	> 100 µM	–	> 100 µM	–	> 100 µM	> 100 µM	> 100 µM	96.5 µM	–	–
CCN1C(=NCCO)NS(=O)(=O)c2ccccc21	–	> 100 µM	–	> 100 µM	–	> 100 µM	–	> 100 µM	–	> 100 µM	–	> 100 µM	–	> 100 µM	–	> 100 µM	> 100 µM	–	–
O=Cc1ccc(-c2ccc(-c3nc4ccccc4s3)cc2)s1	43.5 µM	> 100 µM	–	–	–	–	> 100 µM	> 100 µM	83.5 µM	> 100 µM	54.6 µM	> 100 µM	51.9 µM	> 100 µM	> 100 µM	> 100 µM	–	52.4 µM	84.2 µM
NC(=O)CC(N=Cc1nc(-c2ccccc2)oc1O)C(=O)O (configuration not stated)	–	> 100 µM	–	–	–	–	–	> 100 µM	–	> 100 µM	–	> 100 µM	–	> 100 µM	> 100 µM	> 100 µM	> 100 µM	–	–
O=C(NCCCl)SCCO	–	> 100 µM	–	–	–	> 100 µM	–	> 100 µM	–	> 100 µM	–	> 100 µM	–	> 100 µM	> 100 µM	> 100 µM	–	–	–
CCC1(CN(C)C)CC/C(=C\c2ccc(OC)c(OC)c2)C1=O (configuration not stated)	–	> 100 µM	–	–	–	> 100 µM	–	> 100 µM	–	> 100 µM	–	> 100 µM	–	> 100 µM	> 100 µM	> 100 µM	> 100 µM	–	–
COc1cccc(N2C(=O)C3C4C=C5c6ccccc6N(c6ccccc6)C5(C3C2=O)[C@H]2C(=O)N(c3cccc(OC)c3)C(=O)[C@@H]42)c1 (some centres not stated)	–	–	–	–	–	> 100 µM	–	> 100 µM	–	> 100 µM	–	> 100 µM	–	> 100 µM	> 100 µM	> 100 µM	> 100 µM	–	–
Cc1c2c(c(C)c3c1[nH]c1ccccc13)CN(C)CC2	–	35.7 µM	–	–	–	76.6 µM	–	> 100 µM	–	35.5 µM	–	28.4 µM	–	26 µM	30.3 µM	56.3 µM	57.5 µM	–	–
COC(=O)Cc1cc(=O)[nH]c2c1C(=O)CCC2	–	> 100 µM	–	–	–	> 100 µM	–	–	–	> 100 µM	–	> 100 µM	–	> 100 µM	> 100 µM	> 100 µM	> 100 µM	–	–
Cc1ccc(S(=O)(=O)N/N=C/C(C)C)cc1	–	> 100 µM	–	–	–	> 100 µM	–	> 100 µM	–	> 100 µM	–	> 100 µM	–	> 100 µM	> 100 µM	> 100 µM	> 100 µM	–	–
CC(=O)c1ccc(NC(=O)COC(=O)c2cccc3c(=O)c4ccccc4[nH]c23)cc1	–	> 100 µM	–	–	–	> 100 µM	–	25.9 µM	–	> 100 µM	–	> 100 µM	–	86.5 µM	> 100 µM	> 100 µM	> 100 µM	–	–
O=C1CCCCC12CCC/C2=N\O (configuration not stated)	–	> 100 µM	–	–	–	> 100 µM	–	> 100 µM	–	> 100 µM	–	> 100 µM	–	> 100 µM	> 100 µM	–	–	–	–
O=[N+]([O-])c1cc2no[n+]([O-])c2cc1N1CCCCC1	–	7.21 µM	–	72.5 µM	–	4.34 µM	–	8.37 µM	–	56.6 µM	–	7.19 µM	–	20.2 µM	–	43.4 µM	7.04 µM	–	–
OCCN(CCO)c1cccc(N(CCO)CCO)n1	–	> 100 µM	–	–	–	–	–	> 100 µM	–	> 100 µM	–	> 100 µM	–	> 100 µM	–	–	> 100 µM	–	–
COc1cc2ccnc3c(=C(SC)SC)c(=O)c(c1OC)c23	–	26 µM	–	–	–	29.9 µM	–	30.2 µM	–	> 100 µM	–	28.3 µM	–	> 100 µM	24.7 µM	–	21.2 µM	–	–
O=C1OC(=O)C2C3C=CC(C12)C1C2C=CC2C31 (configuration not stated)	–	> 100 µM	–	–	–	> 100 µM	–	> 100 µM	–	> 100 µM	–	–	–	> 100 µM	> 100 µM	> 100 µM	> 100 µM	–	–
